In patent US20260337153A1, “IONIZABLE AMINE LIPIDS” (Intellia Therapeutics, Inc., priority 2023, published 2026):

Tests used:
[1] = LNP average particle size and polydispersity by dynamic light scattering; format: physicochemical; conditions: sgRNA:mRNA 1:2
Method: Dynamic Light Scattering (“DLS”) is used to characterize the polydispersity index (“pdi” or “PDI”) and size of the LNPs of the present disclosure. DLS measures the scattering of light that results from subjecting a sample to a light source. PDI, as determined from DLS measurements, represents the distribution of particle size (around the mean particle size) in a population, with a perfectly uniform population having a PDI of zero.
LNP compositions are analyzed for average particle size, polydispersity index (pdi), total RNA content, encapsulation efficiency of RNA, and zeta potential. LNP compositions may be further characterized by lipid analysis, AF4-MALS, NTA, and/or cryo-EM.
Average particle size and polydispersity are measured by dynamic light scattering (DLS) using a Malvern Zetasizer DLS instrument. LNP samples were diluted with PBS buffer prior to being measured by DLS. Z-average diameter (“Z-avg”) which is an intensity-based measurement of average particle size was reported along with number average diameter (“number mean”) and PDI. A Malvern Zetasizer instrument is also used to measure the zeta potential of the LNP. Samples are diluted 1:17 (50 μL into 800 μL) in 0.1×PBS, pH 7.4 prior to measurement.
In vivo editing efficiency for materials delivered with formulations including various amine lipid (or ionizable lipid) compounds in Experiments 1 through 14 as described in Tables 3 and 4 was assessed. Editing was measured using G000534 (SEQ ID NO: 5) which targets the rat TTR gene. Lipids described above were assessed for efficacy through in vivo editing experiments. LNPs were formulated at a 1:2 w/w ratio of sgRNA (SEQ ID NO: 5) and Cas9 mRNA (SEQ ID NO: 3). In Experiments 1 through 13, lipid components of the LNP are formulated in a molar ratio of 50% ionizable lipid, 38% cholesterol, 9% DSPC, and 3% PEG2K-DMG. In Experiment 14, lipid components of the LNP are formulated in a molar ratio of 50% ionizable lipid, 38% cholesterol, 9% DSPC, and 3% C13 Ether. The final LNPs used in different in vivo editing experiments were characterized to determine the encapsulation efficiency (% E), polydispersity index (PDI), and average particle size (Z-avg and number mean) according to the analytical methods provided above. The pKa values of each of the following ionizable lipids were also measured to be in the range of about 5.8 to about 7.6.
In vivo editing efficiency for materials delivered with formulations including various combinations of amine lipid (or ionizable lipid) and PEG lipid compounds was assessed as described in Tables 5 and 6. Editing was measured using G000534 (SEQ ID NO: 5) which targets the rat TTR gene. Lipids described above were assessed for efficacy through in vivo editing experiments. LNPs were formulated at a 1:2 w/w ratio of sgRNA (SEQ ID NO: 5) and Cas9 mRNA (SEQ ID NO:3). Lipid components of the LNP are formulated in a molar ratio of 50% ionizable lipid, 38% cholesterol, 9% DSPC, and 3% of various PEG lipids (e.g., PEG2K-DMG, C13 Ether, C14 Ether). The final LNPs used in different in vivo editing experiments were characterized to determine the encapsulation efficiency (% E), polydispersity index (PDI), and average particle size (Z-avg and number mean) according to the analytical methods provided above. The pKa values of each of the following ionizable lipids were also measured to be in the range of about 5.8 to about 7.6.
In vivo editing efficiency for materials delivered with formulations including various amine lipid (or ionizable lipid) compounds as described in Tables 7 and 8 was assessed. Editing was measured using G000534 (SEQ ID NO: 5) which targets the rat TTR gene. Lipids described above were assessed for efficacy through in vivo editing experiments. LNPs were formulated at a 1:2 w/w ratio of sgRNA (SEQ ID NO: 5) and Cas9 mRNA (SEQ ID NO: 3). Lipid components of the LNP were formulated in a molar ratio of 50% ionizable lipid, 38% cholesterol, 9% DSPC, and 3% C13 Ether. […]

[2] = pKa of unformulated amine lipid by TNS fluorescence; format: physicochemical; conditions: sodium phosphate buffer; Table 2; unformulated amine lipid, TNS; read-out: Lipid pKa
Method in brief: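 Unformulated amine lipid was diluted from ethanol stock to approx. 100 μM in 0.1 M sodium phosphate buffers spanning pH 4.5–9.0 with TNS. Fluorescence read at ex 321/em 448 nm; normalized data fitted sigmoidally to give pKa.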

[3] = Table 3, Experiments 1-13, LNP 50% ionizable lipid, 38% cholesterol, 9% DSPC, 3% PEG2K-DMG
[4] = LNP with 50% ionizable lipid, 38% cholesterol, 9% DSPC, 3% C13 Ether (LNP #1, Compound 53: 3% PEG2K-DMG instead)
[5] = Table 3, Experiment 14, LNP with 3% C13 Ether

## CCCCC/C=C\C/C=C\CCCCCCCC(=O)OCC(CCCCCCCCC(=O)OC(CCCCCCCC)CCCCCCCCC)COC(=O)CCC(CCCCCCCC)OC(=O)NCCN1CCCC1 (stereo not drawn) [Compound 25, 11-(octadecan-9-yloxy)-11-oxo-2-(((4-(((2-(pyrrolidin-1-yl)ethyl)carbamoyl)oxy)dodecanoyl)oxy)methyl)undecyl (9Z,12Z)-octadeca-9,12-dienoate]
[1]; [3]
  Number mean: 64 nm
  PDI: 0.03
  Z-avg: 72 nm
[2]
  pKa: 6.44

## CCCCC/C=C\C/C=C\CCCCCCCC(=O)OCC(CCCCCCCCC(=O)OC(CCCCCCCC)CCCCCCCCC)COC(=O)CCC(CCCC)OC(=O)NCCN(C)CC (stereo not drawn) [Compound 26, 9-butyl-3-methyl-15-(9-(octadecan-9-yloxy)-9-oxononyl)-7,12-dioxo-8,13-dioxa-3,6-diazahexadecan-16-yl (9Z,12Z)-octadeca-9,12-dienoate]
[1]; [3]
  Number mean: 76 nm
  PDI: 0.01
  Z-avg: 81 nm
[2]
  pKa: 6.36

## CCCCC/C=C\C/C=C\CCCCCCCC(=O)OCC(CCCCCCCCC(=O)OC(CCCCCCCC)CCCCCCCCC)COC(=O)CCC(CCCC)OC(=O)NCCN1CCCC1 (stereo not drawn) [Compound 27, 11-(octadecan-9-yloxy)-11-oxo-2-(((4-(((2-(pyrrolidin-1-yl)ethyl)carbamoyl)oxy)octanoyl)oxy)methyl)undecyl (9Z,12Z)-octadeca-9,12-dienoate]
[1]; [3]
  Number mean: 77 nm
  PDI: 0.01
  Z-avg: 82 nm
[2]
  pKa: 6.75

## CCCCCCCCC(CCCCCCCC)OC(=O)CCCC(=O)OCC(COC(=O)CCCC(=O)OC(CCCCCCCC)CCCCCCCC)COC(=O)NCCN1CCCCC1 [Compound 28, di(heptadecan-9-yl) O,O′-(2-((((2-(piperidin-1-yl)ethyl)carbamoyl)oxy)methyl)propane-1,3-diyl) diglutarate]
[1]; [3]
  Number mean: 60 nm
  PDI: 0.022
  Z-avg: 65 nm
[2]
  pKa: 6.2

## CCCCCCCCC(CCCCCCCC)OC(=O)CCCC(=O)OCC(COC(=O)CCCC(=O)OC(CCCCCCCC)CCCCCCCC)COC(=O)NCCN1CCCC1 [Compound 29, di(heptadecan-9-yl) O,O′-(2-((((2-(pyrrolidin-1-yl)ethyl)carbamoyl)oxy)methyl)propane-1,3-diyl) diglutarate]
[1]; [3]
  Number mean: 67 nm
  PDI: 0.023
  Z-avg: 74 nm
[2]
  pKa: 7.1

## CCCCCCCCC(CCCCCCCC)OC(=O)CCCC(=O)OCC(COC(=O)CCCC(=O)OC(CCCCCCCC)CCCCCCCC)COC(=O)OCCCN(C)CC [Compound 30, O,O′-(2-((((3-(ethyl(methyl)amino)propoxy)carbonyl)oxy)methyl)propane-1,3-diyl) di(heptadecan-9-yl) diglutarate]
[1]; [3]
  Number mean: 64 nm
  PDI: 0.02
  Z-avg: 71 nm
[2]
  pKa: 6.4

## CCCCCCCCC(CCCCCCCC)OC(=O)CCCC(=O)OCC(COC(=O)CCCC(=O)OC(CCCCCCCC)CCCCCCCC)COC(=O)OCCCN(C)C [Compound 31, O,O′-(2-((((3-(dimethylamino)propoxy)carbonyl)oxy)methyl)propane-1,3-diyl) di(heptadecan-9-yl) diglutarate]
[1]; [3]
  Number mean: 59 nm
  PDI: 0.003
  Z-avg: 64 nm
[2]
  pKa: 6.8

## CCCCCCCCC(CCCCCCCC)OC(=O)CCCC(=O)OCC(COC(=O)CCCC(=O)OC(CCCCCCCC)CCCCCCCC)COC(=O)OCCCN1CCCCC1 [Compound 32, di(heptadecan-9-yl) O,O′-(2-((((3-(piperidin-1-yl)propoxy)carbonyl)oxy)methyl)propane-1,3-diyl) diglutarate]
[1]; [3]
  Number mean: 59 nm
  PDI: 0.008
  Z-avg: 63 nm
[2]
  pKa: 5.7

## CCCCCCCCC(CCCCCCCC)OC(=O)CCCC(=O)OCC(COC(=O)CCCC(=O)OC(CCCCCCCC)CCCCCCCC)COC(=O)OCCCN1CCCC1 [Compound 33, di(heptadecan-9-yl) O,O′-(2-((((3-(pyrrolidin-1-yl)propoxy)carbonyl)oxy)methyl)propane-1,3-diyl) diglutarate]
[1]; [4]
  Number mean (average particle size): 60 nm
  PDI (polydispersity index): 0.01
  Z-avg (average particle size): 73 nm
[1]; [3]
  Number mean: 66 nm
  PDI: 0.023
  Z-avg: 71 nm
[2]
  pKa: 6.5

## CCCCCCCCC(CCCCCCCC)OC(=O)CCCC(=O)OCC(COC(=O)CCCC(=O)OC(CCCCCCCC)CCCCCCCC)COC(=O)CCCN(C)C [Compound 34, O,O′-(2-(((4-(dimethylamino)butanoyl)oxy)methyl)propane-1,3-diyl) di(heptadecan-9-yl) diglutarate]
[1]; [5]
  Number mean: 61 nm
  PDI: 0.032
  Z-avg: 69 nm
[2]
  pKa: 6.33

## CCCCCCCCC(CCCCCCCC)OC(=O)CCCC(=O)OCC(COC(=O)CCCC(=O)OC(CCCCCCCC)CCCCCCCC)OC(=O)NCCN(CC)CC [Compound 35, O,O′-(2-(((2-(diethylamino)ethyl)carbamoyl)oxy)propane-1,3-diyl) di(heptadecan-9-yl) diglutarate]
[1]; [5]
  Number mean: 67 nm
  PDI: 0.019
  Z-avg: 76 nm
[2]
  pKa: 6.83

## CCCCCCC(CCCCCC)OC(=O)CCCC(=O)OCC(COC(=O)CCCC(=O)OC(CCCCCC)CCCCCC)COC(=O)NCCN(CC)CC [Compound 37, O,O′-(2-((((2-(diethylamino)ethyl)carbamoyl)oxy)methyl)propane-1,3-diyl) di(tridecan-7-yl) diglutarate]
[1]; [3]
  Number mean: 71 nm
  PDI: 0.014
  Z-avg: 78 nm
[2]
  pKa: 6.66

## CCCCCCCCC(CCCCCCCC)C(=O)OCC(COC(=O)NCCN(CC)CC)COC(=O)C(CCCCCCCC)CCCCCCCC [Compound 40, 2-((((2-(diethylamino)ethyl)carbamoyl)oxy)methyl)propane-1,3-diyl bis(2-octyldecanoate)]
[1]; [5]
  Number mean: 48 nm
  PDI: 0.062
  Z-avg: 57 nm
[2]
  pKa: 5.97

## CCCCC/C=C\C/C=C\CCCCCCCC(=O)OCC(COC(=O)CCCC(=O)OC(CCCCCCCC)CCCCCCCC)COC(=O)N(C)CCN(CC)CC (stereo not drawn) [Compound 49, 3-(((2-(diethylamino)ethyl)(methyl)carbamoyl)oxy)-2-((((9Z,12Z)-octadeca-9,12-dienoyl)oxy)methyl)propyl heptadecan-9-yl Glutarate]
[1]; [3]
  Number mean: 87 nm
  PDI: 0.01
  Z-avg: 91 nm
[2]
  pKa: 6.38

## CCCCC/C=C\C/C=C\CCCCCCCC(=O)OCC(COC(=O)CCCC(=O)OC(CCCCCCCC)CCCCCCCC)COC(=O)NCCN1CCCCCC1 (stereo not drawn) [Compound 50, 3-(((2-(azepan-1-yl)ethyl)carbamoyl)oxy)-2-((((9Z,12Z)-octadeca-9,12-dienoyl)oxy)methyl)propyl heptadecan-9-yl Glutarate]
[1]; [3]
  Number mean: 66 nm
  PDI: 0.02
  Z-avg: 74 nm
[2]
  pKa: 6.6
